Assays:
[1] = Contrast-enhanced MR angiography (3D FLASH, 2.0 Tesla); type: in vivo, Ratten (Han. Wistar); conditions: directly after single i.v. 50 µmol/kg or 100 µmol/kg; 3 D FLASH 10/2.6/40°
Experimental: Die Untersuchungen zur kontrastmittelgetützten MR Angiographie wurden an einem experimentellen MRT System (SISCO SIS 85, 2.0 Tesla) mit einer 3 D FLASH Technik (10/2.6/40°) durchgeführt. Um die Wirksamkeit von Kontrastmitteln zur Darstellung von Blutgefäßen zu bestimmen, wurden narkotisierte (Rompun® + Ketavet®,1 + 1, v/v; ≈ 1 ml pro kg Körpergewicht, i. m.) Ratten (Han. Wistar; ≈ 200 g Körpergewicht) MR-tomographisch untersucht.
Figur 4 zeigt Abbildungen dieses Experiments. Die MIP (maximal intensity projection)-Bilder wurden berechnet aus den 3 D FLASH Experimenten vor (links) und direkt nach einmaliger i. v. Applikation von 50 µmol / kg (mitte) bzw. 100 µmol /kg (rechts) der Substanz aus Beispiel 1 g.

[2] = rat, in vivo, iv, 100 umol/kg
Excerpt: Hierfür wurde nach einmaliger intravenöser Applikation (via einer Caudalvene) der Substanzen (Dosis: ≈ 100 µmol Metall pro kg Körpergewicht) die Substanzkonzentration im Blut (basierend auf dem Gd- bzw. Dy-Gehalt) über einen Zeitraum bis zu 120 Minuten p. i. mittels ICP-AES bestimmt. Die pharmakokinetischen Parameter: Verteilungsvolumen (Vss), Gesamtclearance (CLtot) und Eliminationshalbwertszeit (tb) wurden mit einem speziellen Computerprogramm (TOPFIT 2.0; Thomae, Schering, Gödecke) berechnet, wobei ein Zwei-Kompartment-Distributionsmodell zu Grunde gelegt wurde.
Die Gd- und Dy-Gehalte im Blut wurden mittels ICP-AES bestimmt.
Hierfür wurde nach einmaliger intravenöser Applikation (via einer Caudalvene) der Substanzen (Dosis: ≈ 100 µmol Metall pro kg Körpergewicht) die Substanzkonzentration im Blut (basierend auf dem Metallgehalt) über einen Zeitraum bis zu 120 Minuten p. i. mittels ICP-AES bestimmt. Die pharmakokinetischen Parameter: Verteilungsvolumen (Vss), Gesamtclearance (CLtot) und Eliminationshalbwertszeit (tb) wurden mit einem speziellen Computerprogramm (TOPFIT 2.0; Thomae, Schering, Gödecke) berechnet, wobei ein Zwei-Kompartment-Distributionsmodell zu Grunde gelegt wurde.

[3] = T1 relaxivity in human plasma (Minispec pc 20); type: physicochemical
[4] = Diffusibility: in vivo comparison with an intravasal and an extracellular contrast agent, ligated renal vessels; conditions: for Prozentsatz der im Blutraum verbliebenen Dosis: i.v. 20 µmol/kg each, ligated renal vessels, relative to Verbindung 2 set as 100 %
Experimental: Als Versuchstiere dienten drei 250 g schwere, männliche (Schering-SPF-) Ratten. Den Tieren wurden die Nierengefäße abgebunden, um eine renale Eliminierung zu verhindern und bei angenommener vernachlässigbarer faekaler Eliminierung ein Maß für Diffusibilität der erfindungsgemäßen Formulierung aus dem Blut in das umgebende Gewebe zu erhalten. Je Tier wurden 0.5 ml (jeweils 10 mmol/L) der folgenden Kontrastmittel-Lösung intravenös appliziert: Gemisch aus je 1 Teil der Verbindung des Beispiels 1g, im folgenden Verbindung 1 genannt, des intravasalen Kontrastmittels Eu-DTPA-Albumin, im folgenden Verbindung 2 genannt, und des extrazellulären Kontrastmittels Dy-DTPA, im folgenden Verbindung 3 genannt. Über einen Katheter in der Arteria carotis communis wurden Blutproben zu folgenden Zeitpunkten entnommen: 15, 30, 45, 60, 90 sec, 3, 5, 10, 15 min p.i. In den gewonnenen Blutproben wurden jeweils parallel die Konzentrationen an Gadolinium (Gd), Europium (Eu) und Dysprosium (Dy) mittels Atomemissionsspektrometrie (ICP-AES) gemessen. Der im Blutraum verbliebene Anteil des intravasalen Kontrastmittels Verbindung 2 (Eu) wurde als 100 % gesetzt. Der im Blutraum verbliebene Anteil der erfindungsgemäßen Formulierung Verbindung 1 (Gd) und der Verbindung 3 (Dy, extrazelluläre Vergleichssubstanz) konnte durch die unterschiedliche Markierung im gleichen Tier verglichen werden und wurde prozentual ins Verhältnis zur Konzentration der Verbindung 2 gesetzt. Damit liefern diese Daten Angaben über den Verbleib der Verbindungen im Intravasalraum.

## 1,4,7-Tris {1,4,7-tris(N-carboxylatomethyl)-10-(N-1-methyl-3,6-diaza-2,5,8-trioxooctan-1,8-diyl)-1,4,7,10-tetraazacyclododecan, Gd-Komplex}-10-(N-2H,2H,4H,4H,5H,5H-3-oxa-perfluor-tridecanoyl)-1,4,7,10-tetraazacyclododecan [Beispiel 1g]
[1]
  Signalanstieg in den Blutgefäßen (MIP-Bilder): ausgeprägter Signalanstieg in den Blutgefäßen und eine deutliche Kontrastierung zum Normalgewebe
[2]
  CL tot: 0.41 mL/min/kg
  Vss: 0.09 L/kg
[3]; 0.47 T, 20 MHz, 37 °C, Humanplasma, normalised to one metal atom
  R^1 (T^1-Relaxivity): 19,5 L/mmol * sec
[3]; plasma
  Relaxivity (r1, Plasma): ≈ 19.5 1*mmol^- ^1*s^-1
[4]; 30 sec p.i.
  Prozentsatz der im Blutraum verbliebenen Dosis: 84%
[4]; 3 min p.i.
  Prozentsatz der im Blutraum verbliebenen Dosis: 62%
[4]; 10 min p.i.
  Prozentsatz der im Blutraum verbliebenen Dosis: 44%
[4]; early time points
  Blutkonzentrationen verglichen mit dem extrazellulären Kontrastmittel: deutlich höhere Blutkonzentrationen
[4]; first minute p.i.
  Diffusion in das Interstitium im Vergleich zu Eu-DTPA-BSA (Verbindung 2): nur geringfügig schneller
[4]; whole duration of the experiment
  Diffusion in das Interstitium im Vergleich zu Dy-DTPA (Verbindung 3): langsamer

— patent EP0993306B1, “PERFLUOROALKYLATED OLIGOMER COMPOUNDS, PROCESS FOR PREPARING THE SAME AND THEIR USE IN NMR DIAGNOSIS” (SCHERING AKTIENGESELLSCHAFT, priority 1997, dated 1999)
